The text below walks through data of patent US20240317708A1, “INHIBITORS OF TRANSGLUTAMINASES” (ZEDIRA GMBH, priority 2021, published 2024).

Data set [1] can be described thus: Log D shake flask method (octanol / PBS pH 7.4, HPLC). As to conditions: octanol/phosphate-buffered saline (PBS); octanol / PBS pH 7.4, shake flask. It is filed as physicochemical. On the procedure:
In order to classify the inventive compounds according to their lipophilicity, Log D values (distribution coefficient) were determined by means of the well-established shake flask method, measuring the partition of a compound between an octanol and phosphate-buffered saline (PBS, pH 7.4) by HPLC.

A short description of data set [2]: Caco-2 permeability assay (CacoReady kit). It is filed as in vitro ADME. The following applies: human. The procedure, abridged: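 Compounds are tested on pre-formed Caco-2 barriers supplied as a ready-to-use kit, following the kit protocol, and the Papp value is derived to estimate intestinal absorption.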
In general terms: Passage across Caco-2 layers is used to estimate intestinal permeability.

Data set [3] deals with T1, recombinant human transglutaminase 2 (Homo sapiens, UniProt P21980).
T1 construct: purchased Zedira T022
T1 sequence (P21980 1-687): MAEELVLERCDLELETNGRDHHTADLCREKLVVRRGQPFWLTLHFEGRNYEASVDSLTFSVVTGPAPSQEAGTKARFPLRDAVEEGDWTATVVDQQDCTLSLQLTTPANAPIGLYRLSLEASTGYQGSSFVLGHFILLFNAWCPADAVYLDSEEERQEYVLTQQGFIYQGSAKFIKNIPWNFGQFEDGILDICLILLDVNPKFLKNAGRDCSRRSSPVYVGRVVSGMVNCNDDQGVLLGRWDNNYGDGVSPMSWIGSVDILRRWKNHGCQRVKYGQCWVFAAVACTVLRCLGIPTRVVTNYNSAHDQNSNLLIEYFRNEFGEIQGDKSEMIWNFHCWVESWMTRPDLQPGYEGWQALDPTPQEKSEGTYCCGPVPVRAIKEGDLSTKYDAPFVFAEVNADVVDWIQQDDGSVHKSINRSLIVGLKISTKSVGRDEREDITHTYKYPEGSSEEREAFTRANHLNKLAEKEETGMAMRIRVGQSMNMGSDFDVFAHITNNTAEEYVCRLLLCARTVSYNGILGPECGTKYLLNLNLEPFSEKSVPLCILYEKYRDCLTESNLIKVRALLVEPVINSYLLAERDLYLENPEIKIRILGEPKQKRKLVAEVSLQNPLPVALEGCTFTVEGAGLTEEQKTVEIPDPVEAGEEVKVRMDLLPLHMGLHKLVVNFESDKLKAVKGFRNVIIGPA
Put plainly: Transglutaminase assay (dansylcadaverine incorporation into dimethylcasein, DCC-assay). It is filed as biochemical. As to conditions: recombinant human TG2 10 nM, dansylcadaverine/dimethylcasein, 37° C. Put shortly: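 IC50 derived from fluorescence slope between 20 and 30 min (λex 330 nm, λem 500 nm, 37 °C), expressed relative to a 2% DMSO control. Reaction: 10 nM recombinant human TG2, 4 μM dimethylcasein, 16.7 μM dansylcadaverine, 10 mM CaCl2 and glutathione, pH 8.0.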

pIC50: −log10 of the molar value.

Turning to `COC(=O)/C=C/CC[C@H](NC(=O)c1oc2ccccc2c1C)C(=O)Nc1cccn(CC(=O)N[C@@H]2C[C@@H]3C[C@H]([C@H]2C)C3(C)C)c1=O` [III-69, (S,E)-methyl 6-(3-methylbenzofuran-2-carboxamido)-7-oxo-7-(2-oxo-1-(2-oxo-2-((1R,2R,3R,5S)-2,6,6-trimethylbicyclo[3.1.1]heptan-3-ylamino)ethyl)-1,2-dihydropyridin-3-ylamino)hept-2-enoate], in data set [1], the logD (commonly the decadic logarithm of the distribution of all forms, ionised or not, between an organic phase and buffer at a given pH) fell in the range of 3 to 5. The Papp (usually a coefficient for how fast a substance crosses the barrier) in data set [2] was 1 to 10 ×10⁻⁶ cm/s. Besides, in data set [3], the pIC50 (usually −log10 of the IC50, conventionally taken in molar units) is more than 7.60.
In turn, `COC(=O)/C=C/CC[C@H](NC(=O)c1cc(Cl)sc1Cl)C(=O)Nc1cccn(CC(=O)NC23CC4CC(C)(CC(C)(C4)C2)C3)c1=O` [III-124, (S,E)-methyl 6-(2,5-dichlorothiophene-3-carboxamido)-7-(1-(2-(3,5-dimethyladamantane-1-amino)-2-oxoethyl)-2-oxo-1,2-dihydropyridin-3-ylamino)-7-oxohept-2-enoate] registered a pH-dependent lipophilicity (logD) in data set [1] of 3 to 5. This molecule showed a Papp in data set [2] of 1 to 10 ×10⁻⁶ cm/s. Moreover, in data set [3], the negative-log IC50 (pIC50) is more than 7.60.
In the case of `COC(=O)/C=C/CC[C@H](NC(=O)c1csc2ccccc12)C(=O)Nc1cccn(CC(=O)NC2C3CC4CC(C3)CC2C4)c1=O` (stereo partly drawn) [III-107, (S,E)-methyl 6-(benzo[b]thiophene-3-carboxamido)-7-(1-(2-(2-adamantylamino)-2-oxoethyl)-2-oxo-1,2-dihydropyridin-3-ylamino)-7-oxohept-2-enoate], in data set [1], the logD is 3 to 5. The molecule further had an apparent permeability coefficient (Papp) in data set [2] of 1 to 10 ×10⁻⁶ cm/s. In data set [3], the pIC50 was 6.60 to 7.60.
In data set [1], `COC(=O)/C=C/CC[C@H](NC(=O)c1cncn1C)C(=O)Nc1cccn(CC(=O)N[C@@H]2C[C@H]3CC[C@@H]2C3)c1=O` [III-62, (S,E)-methyl 7-(1-(2-((1R,2R,4S)-bicyclo[2.2.1]heptan-2-ylamino)-2-oxoethyl)-2-oxo-1,2-dihydropyridin-3-ylamino)-6-(1-methyl-1H-imidazole-5-carboxamido)-7-oxohept-2-enoate] had a pH-dependent lipophilicity (logD) of 1 to 3. Also, in data set [2], the apparent permeability coefficient (Papp) was less than 1 ×10⁻⁶ cm/s. Further, the pIC50 in data set [3] was more than 7.60.
In data set [1], `COC(=O)/C=C/CC[C@H](NC(=O)c1cnnn1C)C(=O)Nc1cccn(CC(=O)NC23CC4CC(C)(CC(C)(C4)C2)C3)c1=O` [III-114, (S,E)-methyl 7-(1-(2-(3,5-dimethyladamantane-1-amino)-2-oxoethyl)-2-oxo-1,2-dihydropyridin-3-ylamino)-6-(1-methyl-1H-1,2,3-triazole-5-carboxamido)-7-oxohept-2-enoate] came in with a logD of 1 to 3. The same molecule had an apparent permeability (Papp) in data set [2] of less than 1 ×10⁻⁶ cm/s. Moreover, in data set [3], the negative logarithm of the IC50 (pIC50) was more than 7.60.
In the case of `Cc1oc(Br)cc1C(=O)N[C@@H](CC/C=C/C(=O)Nc1ccccc1)C(=O)Nc1cccn(CC(=O)NC23CC(C2)C3)c1=O` [III-152, (S,E)-N7-(1-(2-(bicyclo[1.1.1]pentan-1-ylamino)-2-oxoethyl)-2-oxo-1,2-dihydropyridin-3-yl)-6-(5-bromo-2-methylfuran-3-carboxamido)-N1-phenylhept-2-enediamide], the logD in data set [1] is 1 to 3. This molecule gave a Papp in data set [2] of 1 to 10 ×10⁻⁶ cm/s. In addition, the negative-log IC50 (pIC50) in data set [3] was 6.60 to 7.60.
`COC(=O)/C=C/CC[C@H](NC(=O)c1oc2ccccc2c1C)C(=O)Nc1cccn(CC(=O)NC23CC4CC(C)(CC(C)(C4)C2)C3)c1=O` [III-46, (S,E)-methyl 7-(1-(2-(3,5-dimethyladamantan-1-amino)-2-oxoethyl)-2-oxo-1,2-dihydropyridin-3-ylamino)-6-(3-methylbenzofuran-2-carboxamido)-7-oxohept-2-enoate] displayed a logD in data set [1] of 3 to 5. The apparent permeability (Papp) in data set [2] was 1 to 10 ×10⁻⁶ cm/s. Also, in data set [3], the negative logarithm of the IC50 (pIC50) was more than 7.60.
`COC(=O)/C=C/CC[C@H](NC(=O)c1snnc1C)C(=O)Nc1cccn(CC(=O)N[C@@H]2C[C@H]3CC[C@@H]2C3)c1=O` [III-110, (S,E)-methyl 7-(1-(2-((1R,2R,4S)-bicyclo[2.2.1]heptan-2-ylamino)-2-oxoethyl)-2-oxo-1,2-dihydropyridin-3-ylamino)-6-(4-methyl-1,2,3-thiadiazole-5-carboxamido)-7-oxohept-2-enoate]: in data set [1], the log distribution coefficient (logD) is 1 to 3. In data set [2], this molecule gave an apparent permeability coefficient (Papp) of less than 1 ×10⁻⁶ cm/s. Besides, in data set [3], the negative-log IC50 (pIC50) is more than 7.60.
